Results published in patent publication US4211772A, “Benzopyran glycoside acetals and ketals” (Laboratoires Sarget, priority 1977, dated 1980).
Where two headings read alike, the source gives them in different places.

Columns and labels:
Solubilities in water = format: physicochemical; details: water; read-out: Solubilities in water
[1] = Anti-inflammatory activity: carragenin edema test; format: in vivo; details: rat, in vivo, ip, borate buffer pH 7
Method in brief: (§1)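 Male Wistar EOPS rats receive 0.1 ml of 5% carragenin suspension in physiological serum into the hind-paw metatarsal muscle, with test substance given i.p. in neutralized solution at the same time. Paw edema is measured by plethysmometry at several times after carragenin and reported as % inhibition against pH-matched physiological serum controls.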

carragenin edema = experiment: Anti-inflammatory activity: carragenin edema test; format: in vivo; details: for % inhibition of carragenin edema: borate buffer pH 7, 24 h; for inhibition in vivo at 50 mg/kg / inhibition in vivo at 75 mg/kg / inhibition in vivo at 100 mg/kg / inhibition in vivo at 150 mg/kg: Rattus norvegicus, ip
Method in brief: as §1

Aldose Reductase = molecular target: T1, Aldose Reductase (Bos taurus, UniProt P16116); experiment: Inhibition of aldose reductase in vitro (enzyme from beef eye lenses, glyceraldehyde substrate); format: biochemical; details: in DMF solution, read-out: percentages of inhibition (aldose reductase)
T1 construct: The enzyme is extracted from beef eye lenses; from tissue; host or cells: beef eye lenses
Description: Inhibition of Aldose Reductase In Vitro
The reoxidation of NADPH coupled to the enzymatic reaction was followed spectrophotometrically at 340 nm.

SMILES: C[C@@H]1O[C@@H](Oc2c(-c3ccc(O)c(O)c3)oc3cc(O)cc(O)c3c2=O)[C@@H]2OC3(CCCCC3)O[C@@H]2[C@H]1O [No. 7, 3-O-(2,3-O,O-cyclohexylidene-α-L-rhamnosyl)-quercetin]
- solubility (Solubilities in water): < 100 µg/mL
- mortality at 24 h ([1]; 100 mg/kg i.p.): 20%
- mortality at 5 h ([1]; 150 mg/kg i.p.): 80%
- % inhibition of carragenin edema (carragenin edema; 50 mg/kg i.p.): 10%
- % inhibition of carragenin edema (carragenin edema; 75 mg/kg i.p.): 84%
- % inhibition of carragenin edema (carragenin edema; 100 mg/kg i.p.): 67%
- % inhibition of carragenin edema (carragenin edema; 150 mg/kg i.p.): 87%
- inhibition in vivo at 50 mg/kg (carragenin edema; 1 h, pH 7, read-out: % inhibition of carragenin edema, 50 mg/kg i.p., borate buffer pH 7, 1 h): 14%
- inhibition in vivo at 50 mg/kg (carragenin edema; 1 h, pH 7, read-out: % inhibition of carragenin edema, 50 mg/kg i.p., borate buffer pH 7, 1 h 1/2): 22%
- inhibition in vivo at 75 mg/kg (carragenin edema; 1 h, pH 7, read-out: % inhibition of carragenin edema, 75 mg/kg i.p., borate buffer pH 7, 1 h): 73%
- inhibition in vivo at 75 mg/kg (carragenin edema; 1 h, pH 7, read-out: % inhibition of carragenin edema, 75 mg/kg i.p., borate buffer pH 7, 1 h 1/2): 91%
- inhibition in vivo at 100 mg/kg (carragenin edema; 1 h, pH 7, read-out: % inhibition of carragenin edema, 100 mg/kg i.p., borate buffer pH 7, 1 h): 51%
- inhibition in vivo at 100 mg/kg (carragenin edema; 1 h, pH 7, read-out: % inhibition of carragenin edema, 100 mg/kg i.p., borate buffer pH 7, 1 h 1/2): 52%
- inhibition in vivo at 150 mg/kg (carragenin edema; 1 h, pH 7, read-out: % inhibition of carragenin edema, 150 mg/kg i.p., borate buffer pH 7, 1 h): 89%
- inhibition in vivo at 150 mg/kg (carragenin edema; 1 h, pH 7, read-out: % inhibition of carragenin edema, 150 mg/kg i.p., borate buffer pH 7, 1 h 1/2): 97%
- inhibition in vivo at 50 mg/kg (carragenin edema; 2 h, pH 7, read-out: % inhibition of carragenin edema, 50 mg/kg i.p., borate buffer pH 7, 2 h): 16%
- inhibition in vivo at 75 mg/kg (carragenin edema; 2 h, pH 7, read-out: % inhibition of carragenin edema, 75 mg/kg i.p., borate buffer pH 7, 2 h): 89%
- inhibition in vivo at 100 mg/kg (carragenin edema; 2 h, pH 7, read-out: % inhibition of carragenin edema, 100 mg/kg i.p., borate buffer pH 7, 2 h): 48%
- inhibition in vivo at 150 mg/kg (carragenin edema; 2 h, pH 7, read-out: % inhibition of carragenin edema, 150 mg/kg i.p., borate buffer pH 7, 2 h): 97%
- inhibition in vivo at 50 mg/kg (carragenin edema; 3 h, pH 7, read-out: % inhibition of carragenin edema, 50 mg/kg i.p., borate buffer pH 7, 3 h): 23%
- inhibition in vivo at 75 mg/kg (carragenin edema; 3 h, pH 7, read-out: % inhibition of carragenin edema, 75 mg/kg i.p., borate buffer pH 7, 3 h): 86%
- inhibition in vivo at 100 mg/kg (carragenin edema; 3 h, pH 7, read-out: % inhibition of carragenin edema, 100 mg/kg i.p., borate buffer pH 7, 3 h): 45%
- inhibition in vivo at 150 mg/kg (carragenin edema; 3 h, pH 7, read-out: % inhibition of carragenin edema, 150 mg/kg i.p., borate buffer pH 7, 3 h): 94%
- inhibition in vivo at 50 mg/kg (carragenin edema; 4 h, pH 7, read-out: % inhibition of carragenin edema, 50 mg/kg i.p., borate buffer pH 7, 4 h): 21%
- inhibition in vivo at 75 mg/kg (carragenin edema; 4 h, pH 7, read-out: % inhibition of carragenin edema, 75 mg/kg i.p., borate buffer pH 7, 4 h): 81%
- inhibition in vivo at 100 mg/kg (carragenin edema; 4 h, pH 7, read-out: % inhibition of carragenin edema, 100 mg/kg i.p., borate buffer pH 7, 4 h): 46%
- inhibition in vivo at 150 mg/kg (carragenin edema; 4 h, pH 7, read-out: % inhibition of carragenin edema, 150 mg/kg i.p., borate buffer pH 7, 4 h): 89%
- inhibition in vivo at 50 mg/kg (carragenin edema; 5 h, pH 7, read-out: % inhibition of carragenin edema, 50 mg/kg i.p., borate buffer pH 7, 5 h): 7%
- inhibition in vivo at 75 mg/kg (carragenin edema; 5 h, pH 7, read-out: % inhibition of carragenin edema, 75 mg/kg i.p., borate buffer pH 7, 5 h): 83%
- inhibition in vivo at 100 mg/kg (carragenin edema; 5 h, pH 7, read-out: % inhibition of carragenin edema, 100 mg/kg i.p., borate buffer pH 7, 5 h): 45%
- inhibition in vivo at 150 mg/kg (carragenin edema; 5 h, pH 7, read-out: % inhibition of carragenin edema, 150 mg/kg i.p., borate buffer pH 7, 5 h): 91%
- inhibition in vivo at 50 mg/kg (carragenin edema; 6 h, pH 7, read-out: % inhibition of carragenin edema, 50 mg/kg i.p., borate buffer pH 7, 6 h): 6%
- inhibition in vivo at 75 mg/kg (carragenin edema; 6 h, pH 7, read-out: % inhibition of carragenin edema, 75 mg/kg i.p., borate buffer pH 7, 6 h): 81%
- inhibition in vivo at 100 mg/kg (carragenin edema; 6 h, pH 7, read-out: % inhibition of carragenin edema, 100 mg/kg i.p., borate buffer pH 7, 6 h): 43%
- inhibition in vivo at 150 mg/kg (carragenin edema; 6 h, pH 7, read-out: % inhibition of carragenin edema, 150 mg/kg i.p., borate buffer pH 7, 6 h): 86%
- inhibition in vivo at 50 mg/kg (carragenin edema; read-out: % inhibition of carragenin edema, 50 mg/kg i.p., borate buffer pH 7, 1/2 h): 0%
- inhibition in vivo at 75 mg/kg (carragenin edema; read-out: % inhibition of carragenin edema, 75 mg/kg i.p., borate buffer pH 7, 1/2 h): 48%
- inhibition in vivo at 100 mg/kg (carragenin edema; read-out: % inhibition of carragenin edema, 100 mg/kg i.p., borate buffer pH 7, 1/2 h): 21%
- inhibition in vivo at 150 mg/kg (carragenin edema; read-out: % inhibition of carragenin edema, 150 mg/kg i.p., borate buffer pH 7, 1/2 h): 70%
- inhibition at 100 µM (Aldose Reductase; 10^-4 mole/l): 91%
- inhibition at 10 µM (Aldose Reductase; 10^-5 mole/l): 95%
- inhibition at 1 µM (Aldose Reductase; 10^-6 mole/l): 84%
- inhibition at 0.1 µM (Aldose Reductase; 10^-7 mole/l): 87%
